Data as given in patent US20120004281A1, “RNA Interference Mediated Inhibition of the Nerve Growth Factor Beta Chain (NGFB) Gene Expression Using Short Interfering Nucleic Acid (siNA)” (Merck Sharp & Dohme Corp, priority 2009, published 2012).
[invAb] = inverted abasic unit; m = 2'-O-methyl; r = 2'-OH (RNA); f = 2'-fluoro

tested on: NGFβ mRNA; experiment: NGFβ mRNA knock-down in Calu-1 cells (RNAiMax transfection, Taqman RT-PCR); format: cell-based, human; conditions: human Calu-1 cells, 10 nM siNA, 24 hrs post-transfection, relative to non-targeting control, normalized to GAPDH
Procedure: Calu-1 (human; ATCC cat# HTB-54): Cells were cultured at 37° C. in the presence of 5% CO2 and grown in McCoy's 5a medium supplemented with fetal bovine serum at a final concentration of 10% and 100 μg/mL of streptomycin and 100 U/mL penicillin.
All transfections were performed using RNAiMax (Invitrogen Cat# 13778-150) as per the manufacturer's instructions.
Cells were plated in all wells of a tissue-culture treated, 96-well plate at a final count of 5,000 cells/well in […], of appropriate culture media. Cells were cultured for 24 hours after plating at 37° C. in the presence of 5% CO2.
After 24 hours, complexes containing siNA and RNAiMax were created as follows: A solution of RNAiMax diluted 33-fold in OPTI-MEM was prepared. In parallel, solutions of the siNAs for testing were prepared to a final concentration of 120 nM in OPTI-MEM. After incubation of RNAiMax/OPTI-MEM solution at room temperature for 5 min, an equal volume of the siRNA solution and the RNAiMax solution were added together for each of the siNAs.
This solution was incubated at room temperature for 20 minutes. After incubation, 20 uL of the solution was added to each of the relevant wells.
The final concentration of siNA in each well was 10 nM and the final volume of RNAiMax in each well was 0.3u1.
The time of incubation with the RNAiMax-siNA complexes was 24 hours, unless otherwise indicated. There was no change in media between the transfection and harvesting of the cells unless otherwise indicated.
Dose response curves were carried out in a similar fashion in 96-well plates, while maintaining a constant amount of RNAiMax in each transfection.
RNA was extracted from a 96-well plate using the TaqMan® Gene Expression Cells-to-CT™ Kit (Cat# 4399002) with a modified protocol. Briefly, a 60 uL (1 plate) or 110 uL (2 plates) of the Lysis Solution with DNase I was dispensed into each well of the Lysis Buffer Plate (twin.tec full skirt plate). The lysis buffer and stop plates were stored at 4° C. until the cells were washed.
The plate was spun at 1100 rpm for 5 minutes. The culture medium was aspirated and discarded from the wells of the culture plate. The lysis was performed automatically using a BioMek FX instrument and method. After the Biomek method was completed, the lysis plate was incubated for 2 min. at room temperature. The lysis plate can be stored for 2 hours at 4° C., or at −20° C. or −80° C. for two months.
Each well of the reverse transcription plate required 10 uL of 2× reverse transcriptase Buffer, luL of 20× reverse transcription enzyme and 2 uL of nuclease-free water. The reverse transcription master mix was prepared by mixing 2× reverse transcription buffer, 20× reverse transcription enzyme mix, and nuclease-free water. 13 uL of the reverse transcription master mix was dispensed into each well of the reverse transcription plate (semi-skirted). A separate reverse transcription plate was prepared for each cell plate. The plate was loaded onto a Biomek NX or Biomek FX Dual-96 and the Biomek method was run. The program is programmed to automatically added 7 uL of lysate from the cell lysis procedure described above into each well of the reverse transcription plate. The plate is sealed and spun on a centrifuge (1000 rpm for 30 seconds) to settle the contents to the bottom of the reverse transcription plate. The plate is placed in a thermocycler at 37° C. for 60 min, 95° C. for 5 min, and 4° C. until the plate is removed from the thermocycler. Upon removal, if not used immediately, the plate was frozen at −20° C.
A series of probes and primers were used to detect the various mRNA transcripts of the genes of NGFβ, BDNF and GAPDH in human cell lines. All the Taqman probes and primers for the experiments here-in described were supplied as pre-validated sets by Applied Biosystems, Inc. (see Table 3). The assays were performed on an ABI 7900 instrument, according to the manufacturer's instructions. […]

In order of falling “% KD in CaLu-1 Cells” value:
1. 25410-DC: siNA duplex, NGFβ target site 451; sense B ccGuGAAGcuGcAGAcAcu TTB (SEQ ID NO: 45), antisense AGUGucuGcAGcuucAcGGUU (SEQ ID NO: 46) (sense CCGUGAAGCUGCAGACACUTT; antisense AGUGUCUGCAGCUUCACGGUU; sense: DNA at AGT, 2'-fluoro at CU, [invAb] at 5' end, 3' end, backbone not given here; antisense: sugars from the 5' end rrrmfffmfmmffffmfmmmm, backbone not given here)  70%
2. 25403-DC: siNA duplex, NGFβ target site 958; sense B ccuGuAAAuuAuuuuAAAu TTB (SEQ ID NO: 31), antisense AUUuAAAAuAAuuuAcAGGUU (SEQ ID NO: 32) (sense CCUGUAAAUUAUUUUAAAUTT; antisense AUUUAAAAUAAUUUACAGGUU; sense: DNA at AGT, 2'-fluoro at CU, [invAb] at 5' end, 3' end, backbone not given here; antisense: sugars from the 5' end rrrfmmmmfmmfffmfmmmmm, backbone not given here)  60%
3. 25428-DC: siNA duplex, NGFβ target site 677; sense B uucAAAcAGuAcuuuuuuG TTB (SEQ ID NO: 81), antisense CAAAAAAGuAcuGuuuGAAUU (SEQ ID NO: 82) (sense UUCAAACAGUACUUUUUUGTT; antisense CAAAAAAGUACUGUUUGAAUU; sense: DNA at AGT, 2'-fluoro at CU, [invAb] at 5' end, 3' end, backbone not given here; antisense: sugars from the 5' end rrrmmmmmfmffmfffmmmmm, backbone not given here)  57%
4. 25421-DC: siNA duplex, NGFβ target site 675; sense B uAuucAAAcAGuAcuuuuu TTB (SEQ ID NO: 67), antisense AAAAAGuAcUGuuuGAAuAUU (SEQ ID NO: 68) (sense UAUUCAAACAGUACUUUUUTT; antisense AAAAAGUACUGUUUGAAUAUU; sense: DNA at AGT, 2'-fluoro at CU, [invAb] at 5' end, 3' end, backbone not given here; antisense: sugars from the 5' end rrrmmmfmfmmfffmmmfmmm, backbone not given here)  56%
5. 25402-DC: siNA duplex, NGFβ target site 651; sense B GAGAGGuGAAcAuuAAcAA TTB (SEQ ID NO: 29), antisense UUGuuAAuGuucAccucucUU (SEQ ID NO: 30) (sense GAGAGGUGAACAUUAACAATT; antisense UUGUUAAUGUUCACCUCUCUU; sense: DNA at AGT, 2'-fluoro at CU, [invAb] at 5' end, 3' end, backbone not given here; antisense: sugars from the 5' end rrrffmmfmfffmffffffmm, backbone not given here)  53%
6. 25423-DC: siNA duplex, NGFβ target site 519; sense B AcAGGAGcAAGcGGucAuc TTB (SEQ ID NO: 71), antisense GAUGAccGcuuGcuccuGuUU (SEQ ID NO: 72) (sense ACAGGAGCAAGCGGUCAUCTT; antisense GAUGACCGCUUGCUCCUGUUU; sense: DNA at AGT, 2'-fluoro at CU, [invAb] at 5' end, 3' end, backbone not given here; antisense: sugars from the 5' end rrrmmffmfffmfffffmfmm, backbone not given here)  40%
7. 25426-DC: siNA duplex, NGFβ target site 676; sense B AuucAAAcAGuAcuuuuuu TTB (SEQ ID NO: 77), antisense AAAAAAGuAcuGuuuGAAuUU (SEQ ID NO: 78) (sense AUUCAAACAGUACUUUUUUTT; antisense AAAAAAGUACUGUUUGAAUUU; sense: DNA at AGT, 2'-fluoro at CU, [invAb] at 5' end, 3' end, backbone not given here; antisense: sugars from the 5' end rrrmmmmfmffmfffmmmfmm, backbone not given here)  38%
8. 25406-DC: siNA duplex, NGFβ target site 755; sense B cAcuGGAAcucAuAuuGuA TTB (SEQ ID NO: 37), antisense UACAAuAuGAGuuccAGuGUU (SEQ ID NO: 38) (sense CACUGGAACUCAUAUUGUATT; antisense UACAAUAUGAGUUCCAGUGUU; sense: DNA at AGT, 2'-fluoro at CU, [invAb] at 5' end, 3' end, backbone not given here; antisense: sugars from the 5' end rrrmmfmfmmmffffmmfmmm, backbone not given here)  34%
9. 25404-DC: siNA duplex, NGFβ target site 43; sense B cAGuGGucGuGcAGuccAA TTB (SEQ ID NO: 33), antisense UUGGAcuGcAcGAccAcuGUU (SEQ ID NO: 34) (sense CAGUGGUCGUGCAGUCCAATT; antisense UUGGACUGCACGACCACUGUU; sense: DNA at AGT, 2'-fluoro at CU, [invAb] at 5' end, 3' end, backbone not given here; antisense: sugars from the 5' end rrrmmffmfmfmmffmffmmm, backbone not given here)  33%
10. 25408-DC: siNA duplex, NGFβ target site 653; sense B GAGGuGAAcAuuAAcAAcA TTB (SEQ ID NO: 41), antisense UGUuGuuAAuGuucAccucUU (SEQ ID NO: 42) (sense GAGGUGAACAUUAACAACATT; antisense UGUUGUUAAUGUUCACCUCUU; sense: DNA at AGT, 2'-fluoro at CU, [invAb] at 5' end, 3' end, backbone not given here; antisense: sugars from the 5' end rrrfmffmmfmfffmffffmm, backbone not given here)  26%
11. 25419-DC: siNA duplex, NGFβ target site 648; sense B uGGGAGAGGuGAAcAuuAA TTB (SEQ ID NO: 63), antisense UUAAuGuucAccucucccAUU (SEQ ID NO: 64) (sense UGGGAGAGGUGAACAUUAATT; antisense UUAAUGUUCACCUCUCCCAUU; sense: DNA at AGT, 2'-fluoro at CU, [invAb] at 5' end, 3' end, backbone not given here; antisense: sugars from the 5' end rrrmfmfffmffffffffmmm, backbone not given here)  25%
12. 25429-DC: siNA duplex, NGFβ target site 469; sense B ucAGGAucuGGAcuucGAG TTB (SEQ ID NO: 83), antisense CUCGAAGuccAGAuccuGAUU (SEQ ID NO: 84) (sense UCAGGAUCUGGACUUCGAGTT; antisense CUCGAAGUCCAGAUCCUGAUU; sense: DNA at AGT, 2'-fluoro at CU, [invAb] at 5' end, 3' end, backbone not given here; antisense: sugars from the 5' end rrrmmmmfffmmmffffmmmm, backbone not given here)  1%
